The text below walks through data of PubChem BioAssay AID248 (DTP/NCI, 2004).

SMILES strings stand for the structures. Values joined by “and” are separate entries in the source; they are usually repeats but may differ in a detail not shown here. Identical values can stand only once. Toxic doses and inconclusive results are not listed.

In this assay the test system is L1210 leukemia ip in BDF1 mice, survival T/C. As to the kind of experiment: NCI In Vivo Anticancer Drug Screen. Data for tumor model L1210 Leukemia (intraperitoneal) in B6D2F1 (BDF1) mice. The conditions noted are these: endpoint: mean survival time, higher = longer survival. In outline:
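Read-out is survival time, reported as the treated-group measurement over the vehicle-control measurement.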

[1] abbreviates: dose: 100.0 mg/kg/injection, schedule: Q01DX009 (ip), vehicle: Klucel (hydroxypropylcellulose) (HPC).
[2] abbreviates: dose: 200.0 mg/kg/injection, schedule: Q01DX009 (ip), vehicle: Klucel (hydroxypropylcellulose) (HPC).
[3] abbreviates: dose: 400.0 mg/kg/injection, schedule: Q01DX009 (ip), vehicle: Klucel (hydroxypropylcellulose) (HPC).
The mark [4] stands for this setting: dose: 100.0 mg/kg/injection, schedule: Q01DX001 (ip), vehicle: saline with Tween-80.
Where [5] appears, read: dose: 400.0 mg/kg/injection, schedule: Q01DX009 (ip), vehicle: saline with Tween-80.
Setting [6] is: dose: 100.0 mg/kg/injection, schedule: Q01DX001 (ip), vehicle: carboxymethylcellulose (CMC).
Setting [7] is: dose: 200.0 mg/kg/injection, schedule: Q01DX001 (ip), vehicle: carboxymethylcellulose (CMC).
[8] abbreviates: dose: 400.0 mg/kg/injection, schedule: Q01DX001 (ip), vehicle: carboxymethylcellulose (CMC).
[9] abbreviates: dose: 100.0 mg/kg/injection, schedule: Q04DX003 (ip), vehicle: saline with Tween-80.
[10] abbreviates: dose: 200.0 mg/kg/injection, schedule: Q04DX003 (ip), vehicle: saline with Tween-80.
[11] abbreviates: dose: 400.0 mg/kg/injection, schedule: Q04DX003 (ip), vehicle: saline with Tween-80.

Regarding `O=c1[nH]c(SCc2ccccc2[N+](=O)[O-])nc2nc[nH]c12`, the T/C under setting [1] was 90 % of control; the T/C (dose: 100.0 mg/kg/injection, schedule: Q04DX002 (ip), vehicle: Klucel (hydroxypropylcellulose) (HPC)) is 98 % of control; the T/C (dose: 100.0 mg/kg/injection, schedule: Q04DX002 (ip), vehicle: saline) is 94 % of control; the T/C under setting [2] is 90 % of control; the T/C (dose: 200.0 mg/kg/injection, schedule: Q04DX002 (ip), vehicle: Klucel (hydroxypropylcellulose) (HPC)) is 94 % of control; the T/C (dose: 200.0 mg/kg/injection, schedule: Q04DX002 (ip), vehicle: saline) was 97 % of control. Further, the T/C was 93 % of control under setting [3]; 97 % of control (dose: 400.0 mg/kg/injection, schedule: Q04DX002 (ip), vehicle: Klucel (hydroxypropylcellulose) (HPC)); 97 % of control (dose: 400.0 mg/kg/injection, schedule: Q04DX002 (ip), vehicle: saline).

`O=S(=O)(O)C(Nc1ccccn1)c1ccccc1` (stereo unspecified): the T/C under setting [4] was 104 % of control.

As for `CC12CCC(=O)C=C1CCC1C2C(=O)CC2(C)C1CCC2(O)C(=O)COC(=O)c1cc([N+](=O)[O-])cc([N+](=O)[O-])c1N1CC1` (stereo unspecified), the T/C (dose: 60.0 mg/kg/injection, schedule: Q01DX015 (ip), vehicle: saline) is 94 % of control; the T/C (dose: 90.0 mg/kg/injection, schedule: Q01DX015 (ip), vehicle: saline) was 96 % of control; the T/C (dose: 135.0 mg/kg/injection, schedule: Q01DX015 (ip), vehicle: saline) was 92 % of control; the T/C (dose: 200.0 mg/kg/injection, schedule: Q01DX015 (ip), vehicle: saline) is 100 % of control.

Consider `CN(C)N=Nc1ccccc1C(F)(F)F`, for which the T/C was 109 % of control (dose: 50.0 mg/kg/injection, schedule: Q01DX009 (ip), vehicle: Klucel (hydroxypropylcellulose) (HPC)); 103 % of control and 107 % of control under setting [1]; 104 % of control (dose: 100.0 mg/kg/injection, schedule: Q04DX003 (ip), vehicle: Klucel (hydroxypropylcellulose) (HPC)); 107 % of control and 108 % of control under setting [2]; 104 % of control (dose: 200.0 mg/kg/injection, schedule: Q04DX003 (ip), vehicle: Klucel (hydroxypropylcellulose) (HPC)); 111 % of control and 114 % of control under setting [3]. Moreover, for the setting “dose: 400.0 mg/kg/injection, schedule: Q04DX003 (ip), vehicle: Klucel (hydroxypropylcellulose) (HPC)”, the T/C is 109 % of control.

As to `NC(=O)C1CCC1C(N)=O` (stereo unspecified), the T/C runs as follows: (dose: 100.0 mg/kg/injection, schedule: Q01DX009 (ip), vehicle: saline with Tween-80) 108 % of control; (dose: 200.0 mg/kg/injection, schedule: Q01DX009 (ip), vehicle: saline with Tween-80) 101 % of control; under setting [5], 103 % of control.

With `O=C(COc1ccc(Cl)cc1C(=O)O)NCc1ccc(NC(=O)Nc2cccc(S(=O)(=O)F)c2)cc1`, the T/C by setting is: (dose: 100.0 mg/kg/injection, schedule: Q01DX001 (ip), vehicle: saline) 96 % of control; (dose: 200.0 mg/kg/injection, schedule: Q01DX001 (ip), vehicle: saline) 93 % of control; (dose: 400.0 mg/kg/injection, schedule: Q01DX001 (ip), vehicle: saline) 104 % of control.

On to `CCC(=O)OC1(c2ccccc2)CCN(CCC(O)c2ccccc2)CC1` (stereo unspecified), for which the T/C (dose: 3.13 mg/kg/injection, schedule: Q01DX009 (ip), vehicle: Klucel (hydroxypropylcellulose) (HPC)) is 98 % of control; the T/C (dose: 6.25 mg/kg/injection, schedule: Q01DX009 (ip), vehicle: Klucel (hydroxypropylcellulose) (HPC)) is 104 % of control; the T/C (dose: 12.5 mg/kg/injection, schedule: Q01DX009 (ip), vehicle: Klucel (hydroxypropylcellulose) (HPC)) was 95 % of control; the T/C (dose: 25.0 mg/kg/injection, schedule: Q01DX009 (ip), vehicle: Klucel (hydroxypropylcellulose) (HPC)) is 94 % of control.

As to `N=C(c1ccccc1)c1ccccc1S(=O)(=O)Nc1ccccc1`, the T/C by setting is: under setting [6], 95 % of control; under setting [7], 101 % of control; under setting [8], 95 % of control.

`CN(C)N=Nc1ccc([N+](=O)[O-])cc1C(N)=O`: the T/C reads like this: under setting [4], 117 % of control; (dose: 100.0 mg/kg/injection, schedule: Q01DX007 (ip), vehicle: saline with Tween-80) 124 % of control; under setting [9], 108 % of control; (dose: 180.0 mg/kg/injection, schedule: Q01DX009 (ip), vehicle: saline with Tween-80) 170 % of control; (dose: 200.0 mg/kg/injection, schedule: Q01DX001 (ip), vehicle: saline with Tween-80) 104 % of control; under setting [10], 105 % of control. Besides, the T/C runs as follows: (dose: 268.0 mg/kg/injection, schedule: Q01DX009 (ip), vehicle: saline with Tween-80) 167 % of control; (dose: 400.0 mg/kg/injection, schedule: Q01DX001 (ip), vehicle: saline with Tween-80) 108 % of control; (dose: 400.0 mg/kg/injection, schedule: Q01DX007 (ip), vehicle: saline with Tween-80) 154 % of control; under setting [5], 122 % of control; under setting [11], 117 % of control; (dose: 600.0 mg/kg/injection, schedule: Q01DX009 (ip), vehicle: saline with Tween-80) 90 % of control.

Regarding `CCN(CC)c1nc2ccccc2o1`, the T/C is, setting by setting: under setting [6], 102 % of control; under setting [7], 91 % of control; under setting [8], 91 % of control.

In the case of `O=C(c1cccs1)c1c(C(F)(F)F)oc2c(c1=O)C=CC2`, the T/C reads like this: under setting [6], 100 % of control; under setting [7], 87 % of control; under setting [8], 89 % of control.

As to `O=C(c1ccccc1)C(O)(c1ccccc1)C1CCCC/C1=N\N(c1ccccc1)c1ccccc1` (stereo unspecified), the T/C by setting is: under setting [9], 92 % of control; under setting [10], 96 % of control; under setting [11], 94 % of control.

Regarding `O=C1c2cc([N+](=O)[O-])ccc2-c2cccc(F)c21`, the T/C is 102 % of control (dose: 100.0 mg/kg/injection, schedule: Q04DX003 (ip), vehicle: acetone); 94 % of control (dose: 200.0 mg/kg/injection, schedule: Q04DX003 (ip), vehicle: acetone); 109 % of control (dose: 400.0 mg/kg/injection, schedule: Q04DX003 (ip), vehicle: acetone).

For `N#CC(CN1CCOCC1)[N+](=O)[O-]` (stereo unspecified), the T/C was 98 % of control under setting [9], 93 % of control under setting [10] and 95 % of control under setting [11].

As for `O=C(Cc1ccccc1)NCc1ccc(Cl)cc1`, the T/C runs as follows: (dose: 100.0 mg/kg/injection, schedule: Q04DX002 (ip), vehicle: saline with Tween-80) 96 % of control; (dose: 200.0 mg/kg/injection, schedule: Q04DX002 (ip), vehicle: saline with Tween-80) 101 % of control; (dose: 400.0 mg/kg/injection, schedule: Q04DX002 (ip), vehicle: saline with Tween-80) 114 % of control.

On to `O=[N+]([O-])c1ccc(OCc2ccc(S(=O)(=O)Oc3cccnc3)cc2)c(Cl)c1`, for which the T/C was 94 % of control (dose: 100.0 mg/kg/injection, schedule: Q01DX001 (ip), vehicle: Klucel (hydroxypropylcellulose) (HPC)); 98 % of control (dose: 200.0 mg/kg/injection, schedule: Q01DX001 (ip), vehicle: Klucel (hydroxypropylcellulose) (HPC)); 89 % of control (dose: 400.0 mg/kg/injection, schedule: Q01DX001 (ip), vehicle: Klucel (hydroxypropylcellulose) (HPC)).

Regarding `OC(COc1ccccc1)CC(O)(C(F)(F)F)C(F)(F)F` (stereo unspecified), the T/C (dose: 75.0 mg/kg/injection, schedule: Q01DX009 (ip), vehicle: saline with Tween-80) was 92 % of control; the T/C (dose: 150.0 mg/kg/injection, schedule: Q01DX009 (ip), vehicle: saline with Tween-80) is 89 % of control; the T/C (dose: 300.0 mg/kg/injection, schedule: Q01DX009 (ip), vehicle: saline with Tween-80) was 103 % of control.

Take `CN(C)c1ccc(/C=N/Nc2ncnc3nc[nH]c23)cc1`: the T/C runs as follows: under setting [9], 98 % of control; under setting [10], 96 % of control; under setting [11], 91 % of control.

As for `CC[N+](CC)(CC)CCCC[N+](CC)(CC)CC`, the T/C was 100 % of control (dose: 12.5 mg/kg/injection, schedule: Q01DX009 (ip), vehicle: water); 96 % of control (dose: 25.0 mg/kg/injection, schedule: Q01DX009 (ip), vehicle: water); 90 % of control (dose: 50.0 mg/kg/injection, schedule: Q01DX009 (ip), vehicle: water).
